The values that follow come from patent US12325880B2, “Identification of PDE3 modulator responsive cancers” (THE BROAD INSTITUTE, INC., priority 2018, dated 2025).

Common to all, as to format: cell-based
Experiment [1] has as its target T1, PDE3A-SLFN12 complex (Homo sapiens, UniProt Q14432).
T1 construct: immunoprecipitated endogenous PDE3A; endogenous in cells; host or cells: HeLa cells, parental or AIP CRISPR knockout; PDE3A is endogenous; SLFN12 is ectopically expressed
Description: PDE3A immunoprecipitation / immunoblot for PDE3A-SLFN12 complex formation in HeLa cells. Particulars: for complex formation between PDE3A and FLAG-tagged SLFN12 with AIP knocked out (FIG. 8B) / complex formation between PDE3A and FLAG-tagged SLFN12 (FIG. 8B): HeLa cells, anti-PDE3A pull down, 10 μM compound; for complex formation between PDE3A and FLAG-tagged SLFN12 with AIP knocked out (FIG. 8B): AIP Crispr knockout (KO sg2, KO sg3). The procedure: Because decreased PDE3A protein expression could impact DNMDP-induced PDE3A-SLFN12 complex formation, the effects of AIP knockout on this complex formation were also measured. As there is no good antibody for SLFN12 protein, we ectopically expressed V5-tagged SLFN12 in parental or AIP-knockout HeLa cells, immunoprecipitated endogenous PDE3A, and assessed whether V5-SLFN12 could be detected in the immunoprecipatites. Cells were plated in 10 cm petri dishes and collected at 50-90% confluence. For PDE3A immunoblotting in biomarker positive cells and in AIP KO cells, cells were seeded in 15 cm plates at similar density as in viability assays with a vessel scaling factor of 5000, e.g., 500 cells per well was scaled to 10^6 cells per 10 cm plate or 2.5×10^6 cells per 15 cm plate, and then cultured for 72 hours before collection. Cell pellets were lysed at 4° C. for 20 minutes in modified RIPA buffer (150 mM NaCl, 10% glycerol, 50 mM Tris-Cl pH 8.0, 50 mM MgCl2, 1% NP-40) supplemented with EDTA-free protease inhibitors (Sigma-Aldrich 4693159001) and PhosSTOP phosphatase inhibitors (Sigma-Aldrich 4906837001). Lysates were clarified by centrifugation at 13,000 rpm×10 min at 4° C. and quantified using BCA protein assays (Thermo Fisher Scientific 23225). Clarified lysates were resolved on 4-12% Bis-Tris PAGE gels, transferred to nitrocellulose membranes (Thermo Fisher Scientific IB23001) and immunoblotted with primary antibodies against PDE3A (Bethyl 302-740A, 1:2000), V5 (Life Technologies R96205 at 1:5,000), AIP (Thermo Fisher Scientific MA3-16515 at 1:2000), Vinculin (Sigma-Aldrich V9264 at 1:5,000), GAPDH (Cell Signaling Technology 2118 at 1:2000) and secondary antibodies from LiCOR Biosciences (92632210 and 926068021, each at 1:10,000). Blots were washed and imaged using a LiCOR Odyssey infrared imager, and fluorescent signals quantified using the Image Studio software provided by the LiCOR manufacturer.

In experiment [2] the test system is HeLa cells. The experiment in a line: 72 h Cell Titer Glo viability, HeLa. More on the design: AUC: unit not given beside the values. How it is done: (§1) To measure cancer cell death in response to 6-(4-(diethylamino)-3-nitrophenyl)-5-methyl-4,5-dihydropyridazin-3(2H)-one (DN/DP) treatment, cells were plated in 384w assay plates at the following cell density per well: 500 cells of HeLa (DMEM), A2058 (DMEM), HMCB (EMEM), IGR37 (DMEM), NCIH1734 (RPMI), 750 cells of CAL51 (DMEM), COL0741 (RPMI), DKMG (RPMI), GB1 (EMEM), HEL (RPMI), HEL9217 (RPMI), JHUEM1 (DMEM+F12), L3.3 (RPMI) and TE4 (RPMI), HCC15 (RPMI), UACC257 (RPMI), 1000 cells for HUT78 (IMEM), NCIH1563 (RPMI), NCIH2122 (RPMI), NCIH2172 (RPMI), RVH421 (RPMI) and SKMEL3 (McCoy's 5A), 1500 cells for C32 (EMEM), HS578T (DMEM) and JHOM1 (DMEM+F12). Cells were incubated at 37° C. overnight and then treated with a DNMDP dose dilution series using an HP D300 digital dispenser. After 72 hours, the viability of cells in each well were measured by Cell Titer Glo (Promega G755B and G756B). Percent viability values were determined using the values from untreated wells and AUC values were calculated using a 4-parameter fit. DNMDP was purchased from Life Chemicals (F1638-0042) and trequinsin was purchased from Sigma-Aldrich (T2057).
(§2) PDE3A CRISPR KO cells (sgRNA #2) were generated according to de Waal et al, 2016 (2), hereby incorporated by reference in its entirety. CRISPR target sites for PDE3B and AIP were identified using the CHOPCHOP CRISPR Design Tool (chopchop.cbu.uib.no). For cloning of sgRNAs, forward and reverse oligos were annealed, phosphorylated and ligated into a BsmBI-digested lentiCRISPRv2 vector. Lentivirus carrying each guide construct was packaged as described above and used to infect target cells. Transduced target cells were selected using 1 μg/ml puromycin and passaged for 7 days before use.
Background: Cellular ATP, detected with luciferase, serves as a proxy for viable cell number.

For experiment [3], the system named is A2058 and SKMEL3 cells with CRISPR KO of SLFN12. Description: 72 h Cell Titer-Glo survival of cells with CRISPR KO of SLFN12. Particulars: CRISPR KO of SLFN12 (sg4). The procedure: A2058 and SKMEL3 are representative melanoma cell lines. Survival is measured with a 72 h Cell Titer-Glo assay and CRISPR was performed with sg4, SLFN12 CRISPR guide RNA #4.
as §2
FIG. 3A illustrates the survival of cells in the presence of DNMDP that have had CRISPR knockout of SLFN12. FIG. 3B illustrates the survival of cells in the presence of DNMDP that have had CRISPR knockout of PDE3A (with and without ectopic expression of PDE3B). […] The survival in FIGS. 3A and 3B was measured with a 72 h Cell Titer-Glo assay and CRISPR was performed with sg4, SLNF12 CRISPR guide RNA #4.

In experiment [4] the test system is C32 melanoma cell line. Description: 72 h Cell Titer Glo viability, C32. More on the design: AUC: unit not given beside the values. How it is done:
as §1

For experiment [5], the system named is HMCB melanoma cell line. The experiment in a line: 72 h Cell Titer Glo viability, HMCB. More on the design: unit not given beside the values. As to conditions: 72 h Cell Titer Glo dose response, AUC on a scale from 0-4. How it is done: as §1
Experiment [6] has as its system IGR37 melanoma cell line. The experiment in a line: 72 h Cell Titer Glo viability, IGR37. As to conditions: 72 h Cell Titer Glo dose response, AUC on a scale from 0-4. More on the design: unit not given beside the values. How it is done: as §1
Experiment [7] deals with UACC257 melanoma cell line. Description: 72 h Cell Titer Glo viability, UACC257. More on the design: AUC: unit not given beside the values. The procedure:
as §1

In experiment [8] the test system is SKMEL3 melanoma cell line. The experiment in a line: 72 h Cell Titer Glo viability, SKMEL3. More on the design: unit not given beside the values. Particulars: 72 h Cell Titer Glo dose response, AUC on a scale from 0-4. The procedure: as §1
The test system of experiment [9] is COLO741 melanoma cell line. Description: 72 h Cell Titer Glo viability, COLO741. Particulars: 72 h Cell Titer Glo dose response, AUC on a scale from 0-4. More on the design: unit not given beside the values. The procedure: as §1
The test system of experiment [10] is RVH421 melanoma cell line. The experiment in a line: 72 h Cell Titer Glo viability, RVH421. How it is done:
as §1

Experiment [11] deals with A2058 melanoma cell line. The experiment in a line: 72 h Cell Titer Glo viability, A2058. Particulars: 72 h Cell Titer Glo dose response, AUC on a scale from 0-4. More on the design: unit not given beside the values. How it is done:
as §1
PDE3A CRISPR KO cells (sgRNA #2) were generated according to de Waal et al, 2016 (2), hereby incorporated by reference in its entirety. CRISPR target sites for PDE3B and AIP were identified using the CHOPCHOP CRISPR Design Tool (chopchop.cbu.uib.no). […]

T1 sequence (Q14432 whole entry): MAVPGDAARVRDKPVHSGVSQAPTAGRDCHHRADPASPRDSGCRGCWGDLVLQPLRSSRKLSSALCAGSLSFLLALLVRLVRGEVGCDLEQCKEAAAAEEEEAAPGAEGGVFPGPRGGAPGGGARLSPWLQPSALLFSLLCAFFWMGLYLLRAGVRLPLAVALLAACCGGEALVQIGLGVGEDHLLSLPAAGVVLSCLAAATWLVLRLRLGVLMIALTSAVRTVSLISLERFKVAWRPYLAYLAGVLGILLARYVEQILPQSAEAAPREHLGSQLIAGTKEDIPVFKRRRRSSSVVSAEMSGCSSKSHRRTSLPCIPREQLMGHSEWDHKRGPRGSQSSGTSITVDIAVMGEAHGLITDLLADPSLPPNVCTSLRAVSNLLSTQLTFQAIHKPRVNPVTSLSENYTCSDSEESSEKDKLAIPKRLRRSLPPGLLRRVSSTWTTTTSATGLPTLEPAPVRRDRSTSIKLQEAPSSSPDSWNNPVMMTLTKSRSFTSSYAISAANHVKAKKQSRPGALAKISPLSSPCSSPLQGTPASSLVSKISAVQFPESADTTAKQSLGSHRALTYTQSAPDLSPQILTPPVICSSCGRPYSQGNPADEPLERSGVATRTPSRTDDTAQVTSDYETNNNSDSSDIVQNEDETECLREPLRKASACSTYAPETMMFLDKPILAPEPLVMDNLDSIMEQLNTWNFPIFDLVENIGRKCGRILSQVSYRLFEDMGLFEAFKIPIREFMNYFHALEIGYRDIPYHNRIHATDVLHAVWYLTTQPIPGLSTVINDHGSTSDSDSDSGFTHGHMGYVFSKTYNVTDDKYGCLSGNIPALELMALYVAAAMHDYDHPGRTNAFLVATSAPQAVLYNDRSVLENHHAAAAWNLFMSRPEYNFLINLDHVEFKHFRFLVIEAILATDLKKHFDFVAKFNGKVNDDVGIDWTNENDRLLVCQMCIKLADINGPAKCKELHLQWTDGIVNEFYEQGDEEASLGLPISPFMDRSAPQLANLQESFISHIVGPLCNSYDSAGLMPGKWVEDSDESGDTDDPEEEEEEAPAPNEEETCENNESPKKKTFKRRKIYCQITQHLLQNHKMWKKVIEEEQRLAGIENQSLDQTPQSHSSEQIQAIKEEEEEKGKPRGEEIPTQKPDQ
T1 sequence (Q8IYM2 whole entry partner): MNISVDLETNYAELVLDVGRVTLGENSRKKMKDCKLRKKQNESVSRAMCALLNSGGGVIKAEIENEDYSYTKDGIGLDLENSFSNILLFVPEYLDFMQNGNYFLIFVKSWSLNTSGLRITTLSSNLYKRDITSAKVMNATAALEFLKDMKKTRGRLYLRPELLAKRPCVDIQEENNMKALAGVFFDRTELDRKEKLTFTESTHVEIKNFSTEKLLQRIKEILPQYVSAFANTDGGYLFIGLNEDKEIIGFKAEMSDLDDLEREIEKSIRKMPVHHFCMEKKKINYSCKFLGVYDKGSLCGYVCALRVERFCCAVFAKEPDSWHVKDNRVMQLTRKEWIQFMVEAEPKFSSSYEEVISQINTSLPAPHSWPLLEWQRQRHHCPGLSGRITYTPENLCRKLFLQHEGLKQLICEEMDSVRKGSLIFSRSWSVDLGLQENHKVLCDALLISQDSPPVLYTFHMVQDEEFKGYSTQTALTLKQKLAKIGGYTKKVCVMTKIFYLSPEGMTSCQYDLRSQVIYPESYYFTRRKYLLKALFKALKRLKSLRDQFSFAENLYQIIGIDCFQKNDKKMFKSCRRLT

`C[C@@H]1OC(=O)NN=C1c1ccc(-c2ccc(F)cc2)c(C(F)(F)F)c1` [Compound X, (6S)-5-[4′-fluoro-2-(trifluoromethyl)biphenyl-4-yl]-6-methyl-3,6-dihydro-2H-1,3,4-oxadiazin-2-one]: in [1], the “complex formation between PDE3A and FLAG-tagged SLFN12 with AIP knocked out (FIG. 8B)” value is “not observed”; the “complex formation between PDE3A and FLAG-tagged SLFN12 (FIG. 8B)” value is “induced”. In addition, the “cancer cell killing in cells lacking AIP (FIG. 8A)” value in experiment [2] (HeLa cells having an AIP knock out (KOsg2, KOsg3)) is reported as “no cancer cell killing was observed”. The “cervical cancer cell viability (FIG. 8A)” value in experiment [2] (HeLa cells, increasing concentrations) was “reduced at increasing concentrations”.
In the case of `CCN(CC)c1ccc(C2=NNC(=O)CC2C)cc1[N+](=O)[O-]` (stereo not shown) [DNMDP, 6-(4-(diethylamino)-3-nitrophenyl)-5-methyl-4,5-dihydropyridazin-3(2H)-one], the “sensitivity after SLFN12 knockout (FIG. 3A)” value in experiment [3] is reported as “SLFN12 knockout abrogates all measured sensitivity”. The AUC stood at 3.13 in experiment [4] (C32 (melanoma), 72 h Cell Titer Glo dose response, AUC on a scale from 0-4); 0.36 in experiment [2] (HeLa (cervical), 72 h Cell Titer Glo dose response, AUC on a scale from 0-4); 1.85 in experiment [5]; 1.17 in experiment [6]; 4.00 in [7] (UACC257 (melanoma, lacks AIP expression), 72 h Cell Titer Glo dose response, AUC on a scale from 0-4); 1.74 in [8]. In addition, the AUC in experiment [9] is listed as 1.19; in [10] (RVH421 (melanoma, PDE3B/SLFN12 biomarker-positive), 72 h Cell Titer Glo dose response, AUC on a scale from 0-4) it was 3.02; in experiment [11] it was 2.11. Further, the “sensitivity of cell line (dose response, FIG. 2A)” value is recorded as “only partially sensitive” in [4] (C32 cells, 72 h Cell Titer-Glo); “completely insensitive” in experiment [7] (UACC257 cells, 72 h Cell Titer-Glo); “only partially sensitive” in [10] (RVH421 cells, 72 h Cell Titer-Glo). The “PDE3A-SLFN12 complex formation after AIP knockout (FIG. 7)” value in [1] (AIP-knockout HeLa cells, V5-tagged SLFN12, PDE3A immunoprecipitates, 10 μM) is given as “completely abolished”. The “complex formation between PDE3A and FLAG-tagged SLFN12 with AIP knocked out (FIG. 8B)” value in [1] is reported as “not observed”. For the same molecule, the “complex formation between PDE3A and FLAG-tagged SLFN12 (FIG. 8B)” value in [1] is given as “induced”. Further, the “cell response after AIP knockout (FIG. 6A)” value in [2] (HeLa cells, AIP CRISPR knockout with independent gRNAs, 72-hour Cell Titer-Glo) is reported as “AIP knockout eliminates HeLa cell response”. In addition, the “sensitivity in PDE3A knockout cells with ectopic PDE3B expression (FIG. 3B)” value in [2] (PDE3A knockout HeLa cells, ectopic expression of PDE3B, 72 h Cell Titer-Glo) is recorded as “support DNMDP sensitivity”.
